SMILES strings stand for the structures. In brackets after ≈: the same amount, converted by molar mass. Read-outs that look alike come from different tables or passages of the source.

These results are taken from article PMC11599901, “Enhancing the solubility and antibacterial activity of novel molecular salts of enrofloxacin drug with isomeric pyridinedicarboxylic acids” (Scientific Reports, 2024).

The test system of series [1] is Escherichia coli ATCC 25922. Briefly: Broth microdilution antibacterial activity (MIC/MBC), CLSI M07. It counts as cell-based. As to conditions: 24 h at 37 °C; for MBC (minimal bactericidal concentration) / MIC (minimal inhibitory concentration): Mueller-Hinton medium. How it is done:
(§1) The antibacterial activity of the enrofloxacin salts was determined against two Gram-positive strains (Staphylococcus aureus ATCC 6358, Streptococcus pyogenes ATCC 19615) and two Gram-negative bacteria (Escherichia coli ATCC 25922, Pseudomonas aeruginosa ATCC 15442). The determination was performed in accordance with Clinical and Laboratory Standards Institute (CLSI) standard […] for antimicrobial susceptibility testing of aerobic bacteria. The assessment was performed using the broth microdilution method with Mueller-Hinton medium. The tested samples were accompanied by biotic controls, i.e. without the addition of newly synthesized compounds, and abiotic controls, i.e. without the addition of microorganisms. All probes were incubated for 24 h at 37 °C. Microbial growth was measured using a microplate reader (Multiskan FC Microplate Photometer, ThermoFisher Scientific, Pudong, Shanghai, China) at λ = 630 nm. The follow were determined: the minimal inhibitory concentration (MIC), defined as the lowest concentration of a compound that prevents visible growth of bacteria, and minimal bactericidal concentration (MBC), defined as the lowest concentration of a substance that completely limits the viability of microorganisms.

Series [2] has as its system Pseudomonas aeruginosa ATCC 15442. Described as above. The series is classed as cell-based. Particulars: 24 h at 37 °C; for MBC (minimal bactericidal concentration) / MIC (minimal inhibitory concentration): Mueller-Hinton medium. How it is done: as §1
Series [3] deals with Streptococcus pyogenes ATCC 19615. The series is described as above. The series is classed as cell-based. Particulars: 24 h at 37 °C; for MBC (minimal bactericidal concentration) / MIC (minimal inhibitory concentration): Mueller-Hinton medium. The protocol: as §1
Series [4] deals with Staphylococcus aureus ATCC 6358. The series is described as above. As to conditions: 24 h at 37 °C; for MBC (minimal bactericidal concentration) / MIC (minimal inhibitory concentration): Mueller-Hinton medium. It counts as cell-based. The protocol:
as §1

For series [5] the following is noted: cited from earlier work.
A short description of series [6]: Water solubility by the gravimetric method. As to conditions: 25 °C. The series is classed as physicochemical. How it is done: Temperature was maintained using a calibrated UltraUB 20 F with a DLK 25 circulating cooler (Lauda, Germany). A specific amount of the substance under investigation was carefully weighed using a precise analytical balance (Sartorius RC 210D). The mixture of salts and water was thoroughly mixed to ensure complete dissolution of the substance under investigation and left for 2 h to achieve equilibrium between the solution and the precipitate. Then, the solution was filtered, and the remaining precipitate was dried to a constant mass to remove the solvent. The difference between the initial mass of the substance m0 and the mass of the undissolved substance m1 allowed for the determination of the mass of the substance dissolved in the given mass of solvent.
Each measurement was taken in triplicate.

Take `CCN1CCN(c2cc3c(cc2F)c(=O)c(C(=O)O)cn3C2CC2)CC1.O=C(O)c1cccnc1C(=O)O` [EFX·Py2,3DCA]: the “MBC (minimal bactericidal concentration)” value worked out at 0.031 µg/mL in series [1], 2 µg/mL in series [2], 0.25 µg/mL in series [3] and 0.25 µg/mL in series [4]. The “MIC (minimal inhibitory concentration)” value in series [1] amounted to 0.0078 µg/mL; in series [2], 1 µg/mL; in series [3] it was 0.125 µg/mL; in series [4], 0.25 µg/mL.

With `CCN1CCN(c2cc3c(cc2F)c(=O)c(C(=O)O)cn3C2CC2)CC1.O=C(O)c1ccnc(C(=O)O)c1` [EFX·Py2,4DCA], the “MBC (minimal bactericidal concentration)” value in series [1] was determined as 0.031 µg/mL; in series [2], 2 µg/mL; in series [3] it was 0.25 µg/mL; in series [4], 0.25 µg/mL. Besides, the “MIC (minimal inhibitory concentration)” value in series [1] came out at 0.0078 µg/mL; in series [2], 1 µg/mL; in series [3], 0.125 µg/mL; in series [4] it was 0.25 µg/mL.

Take `CCN1CCN(c2cc3c(cc2F)c(=O)c(C(=O)O)cn3C2CC2)CC1.O.O=C(O)c1cccc(C(=O)O)n1` [EFX·Py2,6DCA·H2O]: the “MBC (minimal bactericidal concentration)” value was found to be 0.015 µg/mL in series [1], 2 µg/mL in series [2], 0.25 µg/mL in series [3] and 0.25 µg/mL in series [4]. In addition, the “MIC (minimal inhibitory concentration)” value in series [1] amounted to 0.0078 µg/mL; in series [2], 1 µg/mL; in series [3], 0.125 µg/mL; in series [4], 0.25 µg/mL.

As for `O=C(O)CC(O)C(=O)O` (stereo not drawn) [malic acid], the solubility in water in series [5] (ref 41) was 16130 µg/mL (≈ 120000 µM).

With `CCN1CCN(c2cc3c(cc2F)c(=O)c(C(=O)O)cn3C2CC2)CC1` [EFX, 1-cyclopropyl-7-(4-ethyl-1-piperazinyl)-6-fluoro-1,4-dihydro-4-oxo-3-quinolinecarboxylic acid, reference compound], the MBC was determined as 0.0078 µg/mL (≈ 0.0217 µM) in series [1] (ATCC25922, Mueller-Hinton medium, read-out: MBC (minimal bactericidal concentration)); 1 µg/mL (≈ 2.78 µM) in series [2] (ATCC15442, Mueller-Hinton medium, read-out: MBC (minimal bactericidal concentration)); 0.125 µg/mL (≈ 0.348 µM) in series [3] (ATCC19615, Mueller-Hinton medium, read-out: MBC (minimal bactericidal concentration)); 0.25 µg/mL (≈ 0.696 µM) in series [4] (ATCC6358, Mueller-Hinton medium, read-out: MBC (minimal bactericidal concentration)). Besides, the MIC in series [1] (ATCC25922, Mueller-Hinton medium, read-out: MIC (minimal inhibitory concentration)) came out at 0.0078 µg/mL (≈ 0.0217 µM); in series [2] (ATCC15442, Mueller-Hinton medium, read-out: MIC (minimal inhibitory concentration)), 0.5 µg/mL (≈ 1.39 µM); in series [3] (ATCC19615, Mueller-Hinton medium, read-out: MIC (minimal inhibitory concentration)), 0.0625 µg/mL (≈ 0.174 µM); in series [4] (ATCC6358, Mueller-Hinton medium, read-out: MIC (minimal inhibitory concentration)) it was 0.0625 µg/mL (≈ 0.174 µM). In addition, the solubility in water in series [5] (ref 34) was 610 µg/mL (≈ 1700 µM); in series [5] (ref 41) it was 140 µg/mL (≈ 390 µM). In series [6] (thermodynamic from solid), the solubility at 2 h is 176 µg/mL (≈ 490 µM).

Consider `CCN1CCN(c2cc3c(cc2F)c(=O)c(C(=O)O)cn3C2CC2)CC1.O.O=C(O)c1ccc(C(=O)O)nc1` [EFX·Py2,5DCA·H2O], for which the “MBC (minimal bactericidal concentration)” value in series [1] is 0.031 µg/mL; in series [2] it was 2 µg/mL; in series [3], 0.25 µg/mL; in series [4] it was 0.25 µg/mL. In addition, the “MIC (minimal inhibitory concentration)” value in series [1] was determined as 0.0078 µg/mL; in series [2], 1 µg/mL; in series [3] it was 0.125 µg/mL; in series [4], 0.25 µg/mL.

In series [6], `O=C(O)c1ccc(C(=O)O)nc1` [Py2,5DCA, pyridine-2,5-dicarboxylic acid] had a solubility in water of 1237 µg/mL (≈ 7400 µM).
